Reference: patent US20250171459A1, “2-METHYL-4',5'-DIHYDROSPIRO[PIPERIDINE-4,7'-THIENO[2,3-C]PYRAN] DERIVATIVES AS INHIBITORS OF APOL1 AND METHODS OF USING SAME” (Vertex Pharmaceuticals Incorporated, priority 2022, published 2025)

Target: T1, APOL1 (Homo sapiens, UniProt O14791)
T1 sequence (O14791 1-398 S342G/I384M): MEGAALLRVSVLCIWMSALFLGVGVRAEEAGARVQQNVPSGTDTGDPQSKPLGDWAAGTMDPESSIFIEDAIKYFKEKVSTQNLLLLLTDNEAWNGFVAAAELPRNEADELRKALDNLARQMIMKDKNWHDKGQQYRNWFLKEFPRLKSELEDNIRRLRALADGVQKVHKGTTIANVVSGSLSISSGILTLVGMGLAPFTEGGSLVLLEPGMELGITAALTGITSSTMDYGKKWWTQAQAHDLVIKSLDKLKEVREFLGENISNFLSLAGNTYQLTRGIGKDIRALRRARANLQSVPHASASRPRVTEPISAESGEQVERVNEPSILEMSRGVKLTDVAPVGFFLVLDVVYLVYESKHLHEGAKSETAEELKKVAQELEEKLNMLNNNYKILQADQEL
Experiment: MultiTox-Fluor Multiplex Cytotoxicity Assay in tet-inducible APOL1 T-REx-HEK293 cells (cell rescue, ratio of dead to live cells)
Type: cell-based
Details: tet-inducible transgenic APOL1 T-REx-HEK293 cell lines, 50 ng/mL tet, 24 hours; read-out: IP50 (i.e., IC50 for cell proliferation)
In short: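 T-REx-HEK293 cells with tet-inducible APOL1 were treated with compound (10 μM top, 10-point 3-fold dilution, duplicate) plus 50 ng/mL tetracycline for 24 h at 37° C, in DMEM with 2% tet-free FBS. MultiTox-Fluor protease signals gave a dead/live ratio, normalized to no tet (100% viability) and tet alone (0%).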

Compound	IC50 [nM]
CCc1nnc(Cn2cc(CN3CCC4(CC3)OCCc3sc(CC)cc34)nn2)o1 [Compound 1087]	500 to 1000
CCc1cc2c(s1)CCOC21CCN(Cc2cn(CC(C)S(C)(=O)=O)nn2)CC1 (stereo not drawn) [Compound 1088]	500 to 1000
CCc1cc2c(s1)CCOC21CCN(Cc2cn(CCS(=O)(=O)CC)nn2)CC1 [Compound 1089]	500 to 1000
CCc1cc2c(s1)CCOC21CCN(Cc2cn(CCS(=O)(=O)CC3CC3)nn2)CC1 [Compound 1090]	500 to 1000
CCc1cc2c(s1)CCOC21CCN(Cc2cn(CCS(=O)(=O)C3CCOCC3)nn2)CC1 [Compound 1091]	500 to 1000
CCc1cc2c(s1)CCOC21CCN(Cc2cn(CC(=O)NCC(C)O)nn2)CC1 (stereo not drawn) [Compound 1092]	500 to 1000
CCc1cc2c(s1)CCOC21CCN(Cc2cn(CCc3csc(N)n3)nn2)CC1 [Compound 1093]	500 to 1000
CCc1cc2c(s1)CCOC21CCN(Cc2cn(C3CC(O)C3(C)C)nn2)CC1 (stereo not drawn) [Compound 1094]	500 to 1000
CCc1cc2c(s1)CCOC21CCN(Cc2cn(CC(=O)NCCO)nn2)CC1 [Compound 1095]	500 to 1000
CCc1cc2c(s1)CCOC21CCN(Cc2cn(CC(=O)NCCC(F)(F)F)nn2)CC1 [Compound 1096]	500 to 1000
CCc1cc2c(s1)CCOC21CCN(Cc2cn(CC(O)c3cnn(C)c3)nn2)CC1 (stereo not drawn) [Compound 1097]	500 to 1000
CCc1cc2c(s1)CCOC21CCN(Cc2cn([C@H]3CC[C@@H]3O)nn2)CC1 [Compound 1098]	500 to 1000
CCc1cc2c(s1)CCOC21CCN(Cc2cn(CCCF)nn2)CC1 [Compound 1099]	500 to 1000
CCc1cc2c(s1)CCOC21CCN(Cc2cn(CCC(=O)NCCC(F)(F)F)nn2)CC1 [Compound 1100]	500 to 1000
CCc1cc2c(s1)CCOC21CCN(Cc2cn(C(C)c3nnc(C)o3)nn2)CC1 (stereo not drawn) [Compound 1101]	500 to 1000
CCc1cc2c(s1)CCOC21CCN(Cc2cn(CCC(=O)NCC(C)O)nn2)CC1 (stereo not drawn) [Compound 1102]	500 to 1000
CCc1cc2c(s1)CCOC21CCN(Cc2cn(CC(O)c3cccnc3)nn2)CC1 (stereo not drawn) [Compound 1103]	500 to 1000
CCc1cc2c(s1)CCOC21CCN(Cc2cn(CCN3CCC(O)C3)nn2)CC1 (stereo not drawn) [Compound 1104]	500 to 1000
CCc1cc2c(s1)CCOC21CCN(Cc2cn(C3CC(F)(F)C3)nn2)CC1 [Compound 1105]	500 to 1000
CCc1cc2c(s1)CCOC21CCN(Cc2cn(Cc3cc(C(N)=O)co3)nn2)CC1 [Compound 1106]	500 to 1000
CCc1cc2c(s1)CCOC21CCN(Cc2cn(CC(=O)NC)nn2)CC1 [Compound 1107]	500 to 1000
CCc1cc2c(s1)CCOC21CCN(Cc2cn(Cc3cc(COC)[nH]n3)nn2)CC1 [Compound 1108]	500 to 1000
CCc1cc2c(s1)CCOC21CCN(Cc2cn(CCc3noc(C)n3)nn2)CC1 [Compound 1109]	500 to 1000
CCc1cc2c(s1)CCOC21CCN(Cc2cn(C[C@H]3CC[C@@H](CO)O3)nn2)CC1 [Compound 1110]	500 to 1000
CCc1cc2c(s1)CCOC21CCN(Cc2cn(CCC(=O)NCCO)nn2)CC1 [Compound 1111]	500 to 1000

Compound	IC50 [nM]
CCc1cc2c(s1)CCOC21CCN(Cc2cn(C3CC3)nn2)CC1 [Compound 1112]	500 to 1000
CCc1cc2c(s1)CCOC21CCN(Cc2cn(CC3CCOCC3)nn2)CC1 [Compound 1113]	500 to 1000
CCc1cc2c(s1)CCOC21CCN(Cc2cn(CCC(N)=O)nn2)CC1 [Compound 1114]	500 to 1000
CCc1cc2c(s1)CCOC21CCN(Cc2cn(CCCN3CC(O)C3)nn2)CC1 [Compound 1115]	500 to 1000
CCc1cc2c(s1)CCOC21CCN(Cc2cn(C3CCN(C(C)=O)CC3)nn2)CC1 [Compound 1116]	500 to 1000
CCc1cc2c(s1)CCOC21CCN(Cc2cn(C(C)C(=O)NCCO)nn2)CC1 (stereo not drawn) [Compound 1117]	500 to 1000
CCc1cc2c(s1)CCOC21CCN(Cc2cn(CC3CNC(=O)O3)nn2)CC1 (stereo not drawn) [Compound 1118]	500 to 1000
CCc1cc2c(s1)CCOC21CCN(Cc2cn(C(C)C(=O)NCC(C)O)nn2)CC1 (stereo not drawn) [Compound 1119]	500 to 1000
CCc1cc2c(s1)CCOC21CCN(Cc2cn(CCC(=O)NC)nn2)CC1 [Compound 1120]	500 to 1000
CCc1cc2c(s1)CCOC21CCN(Cc2cn(C(C)C(=O)NCCC(F)(F)F)nn2)CC1 (stereo not drawn) [Compound 1121]	500 to 1000
CCc1cc2c(s1)CCOC21CCN(Cc2cn(CC(=O)NC3COC3)nn2)CC1 [Compound 1122]	500 to 1000
CCc1cc2c(s1)CCOC21CCN(Cc2cn(C3CCC3(F)F)nn2)CC1 (stereo not drawn) [Compound 1123]	500 to 1000
CCc1cc2c(s1)CCOC21CCN(Cc2cn(Cc3ccc(=O)[nH]c3)nn2)CC1 [Compound 1124]	500 to 1000
CCc1cc2c(s1)CCOC21CCN(Cc2cn(Cc3ccc[nH]c3=O)nn2)CC1 [Compound 1125]	500 to 1000
CCc1cc2c(s1)CCOC21CCN(Cc2cc3nc(OC)ccc3[nH]2)CC1 [Compound 1126, 2′-ethyl-1-((5-methoxy-1H-pyrrolo[3,2-b]pyridin-2-yl)methyl)-6′,7′-dihydrospiro[piperidine-4,4′-thieno[3,2-c]pyran]]	< 100
CCc1cc2c(s1)CCOC21CCN(Cc2cnn(CCS(=O)(=O)NC)c2)CC1 [Compound 1127]	< 100
CCc1cc2c(s1)CCOC21CCN(Cc2ccc3[nH]ncc3c2)CC1 [Compound 1128]	< 100
CCc1cc2c(s1)CCOC21CCN(Cc2ccc(NS(C)(=O)=O)cc2)CC1 [Compound 1129]	100 to 500
CCc1cc2c(s1)CCOC21CCN(Cc2cnn(CCS(C)(=O)=O)c2)CC1 [Compound 1130]	100 to 500
CCc1cc2c(s1)CCOC21CCN(Cc2cnn(CCS(=O)(=O)N(C)C)c2)CC1 [Compound 1131]	100 to 500
CCc1cc2c(s1)CCOC21CCN(Cc2cnc(NC(=O)COCCOC)s2)CC1 [Compound 1132]	100 to 500
CCc1cc2c(s1)CCOC21CCN(Cc2cn[nH]c2)CC1 [Compound 1133]	100 to 500
CCc1cc2c(s1)CCOC21CCN(Cc2cnc(N)s2)CC1 [Compound 1134]	100 to 500
CCc1cc2c(s1)CCOC21CCN(Cc2cnn(C(C)=O)c2)CC1 [Compound 1135]	100 to 500
CCc1cc2c(s1)CCOC21CCN(Cc2cnc(-c3cccnc3)s2)CC1 [Compound 1136]	100 to 500

Compound	IC50 [nM]
CCc1cc2c(s1)CCOC21CCN(Cc2cnc(N3CCCCC3)s2)CC1 [Compound 1137]	100 to 500
CCc1cc2c(s1)CCOC21CCN(Cc2cnn(C)c2)CC1 [Compound 1138]	100 to 500
CCc1cc2c(s1)CCOC21CCN(Cc2csc(-c3cccnc3)n2)CC1 [Compound 1139]	500 to 1000
CCc1cc2c(s1)CCOC21CCN(Cc2cnc(-c3ccccn3)s2)CC1 [Compound 1140]	500 to 1000
CCc1cc2c(s1)CCOC21CCN(Cc2c[nH]cn2)CC1 [Compound 1141]	500 to 1000
CCc1cc2c(s1)CCOC21CCN(Cc2cncs2)CC1 [Compound 1142]	500 to 1000
CCc1cc2c(s1)CCOC21CCN(Cc2cnc(C(C)O)s2)CC1 (stereo not drawn) [Compound 1143]	500 to 1000
CCc1cc2c(s1)CCOC21CCN(Cc2cnc(C(F)(F)F)[nH]2)CC1 [Compound 1144]	500 to 1000
CCc1cc2c(s1)CCOC21CCN(Cc2nc(-c3ccccc3)[nH]c2Cl)CC1 [Compound 1145]	500 to 1000
CCc1cc2c(s1)CCOC21CCN(Cc2csc(N3CCOCC3)n2)CC1 [Compound 1146]	500 to 1000
CCc1cc2c(s1)CCOC21CCN(Cc2csc(C(F)(F)F)n2)CC1 [Compound 1147]	500 to 1000
CCc1cc2c(s1)CCOC21CCN(Cc2ccc(S(C)(=O)=O)cc2)CC1 [Compound 1148]	500 to 1000
CCc1cc2c(s1)CCOC21CCN(CC2CN(C(=O)OC(C)(C)C)C2)CC1 [Compound 1149]	500 to 1000
CCc1cc2c(s1)CCOC21CCN(CC2CCN(C(=O)OC(C)(C)C)CC2)CC1 [Compound 1150]	500 to 1000
CCc1cc2c(s1)CCOC21CCN(CC2CCN(S(C)(=O)=O)CC2)CC1 [Compound 1151]	500 to 1000
CCc1cc2c(s1)CCOC21CCN(Cc2cc(O)ccn2)CC1 [Compound 1152]	500 to 1000
CCc1cc2c(s1)CCOC21CCN(Cc2ccncc2)CC1 [Compound 1153]	500 to 1000
CCc1cc2c(s1)CCOC21CCN(Cc2ccc(S(C)(=O)=O)cc2F)CC1 [Compound 1154]	500 to 1000
CCc1cc2c(s1)CCOC21CCN(CC2CC2)CC1 [Compound 1155]	500 to 1000
CCc1cc2c(s1)CCOC21CCN(Cc2cncnc2)CC1 [Compound 1156]	500 to 1000
CCc1cc2c(s1)CCOC21CCN(Cc2ccc(OC)nc2)CC1 [Compound 1157]	100 to 500
CCc1cc2c(s1)CCOC21CCN(Cc2cn(C)nn2)CC1 [Compound 1158]	500 to 1000
CCc1cc2c(s1)CCOC21CCN(Cc2ccc(NS(=O)(=O)CCCO)cc2)CC1 [Compound 1159, N-(4-((2′-ethyl-6′,7′-dihydrospiro[piperidine-4,4′-thieno[3,2-c]pyran]-1-yl)methyl)phenyl)-3-hydroxypropane-1-sulfonamide]	< 100
CCc1cc2c(s1)CCOC21CCN(Cc2ccc(NCc3cc[nH]c(=O)c3)cc2)CC1 [Compound 1162]	100 to 500
CCc1cc2c(s1)CCOC21CCN(Cc2ccc(NS(=O)(=O)C3CC3)cc2)CC1 [Compound 1163]	100 to 500
